Earlier results in patent US20090012008A1, “Pharmaceutical Composition for Photodynamic Therapy and a Method for Treating Oncological Diseases by Using Said Composition” (priority 2005, published 2009).

Assays:
[1] = tested on: tumor cells of the HeLa S3 line; conditions: HeLa S3, in vitro

| Molecule | effect on viability and proliferation rate (keratinocytes) | effect on viability and proliferation rate (fibroblasts) | cytotoxic activity [1] |
| --- | --- | --- | --- |
| c12c3c4c5c1c1c6c7c2c2c8c3c3c9c4c4c%10c5c5c1c1c6c6c%11c7c2c2c7c8c3c3c8c9c4c4c9c%10c5c5c1c1c6c6c%11c2c2c7c3c3c8c4c4c9c5c1c1c6c2c3c41 [fullerene C60] | no effect | no effect |  |
| fullerocyclopentane |  |  | manifest only upon irradiation with light |
